From patent US10266544B2, “Aryl substituted aminomethyl spectinomycin analogs as antibacterial agents” (ST. JUDE CHILDREN'S RESEARCH HOSPITAL, INC., priority 2013, dated 2019)
Where a name gives a salt, the structure may show the parent alone. Read-outs that look alike come from different tables or passages of the source.

How the values were obtained:
Type in all cases: cell-based
[1] = tested on: Neisseria gonorrhoeae (ATCC 49226); test: Disc diffusion assay; conditions: ATCC49226, 4 μg per disc, read-out: Zone of inhibition N.g.
[2] = tested on: Escherichia coli (ATCC 700926); test: MIC determination, microbroth dilution
[3] = tested on: Proteus mirabilis (ATCC 25933); test: MIC determination, microbroth dilution; conditions: ATCC25933
[4] = tested on: Bacillus anthracis, Sterne 34F2; test: microbe, parasite or virus in culture; conditions: STERNE34F2, read-out: MIC B.a.
Listeria monocytogenes = test: MIC determination (Table 6)
[5] = tested on: Staphylococcus aureus (ATCC 29213); test: MIC determination, microbroth dilution; conditions: ATCC29213; Staphylococcus aureus (ATCC 29213); read-out: MIC S.a.
[6] = tested on: MRSA, Staphylococcus aureus (NRS70); test: MIC determination, microbroth dilution; conditions: Staphylococcus aureus (NRS70); read-out: MIC MRSA
[7] = tested on: Proteus vulgaris (ATCC 33420); test: MIC determination, microbroth dilution; conditions: ATCC33420
[8] = tested on: M. tuberculosis clinical isolates; test: microbe, parasite or virus in culture; conditions: Mycobacterium tuberculosis
[9] = tested on: Streptococcus pyogenes (ATCC 700294); test: MIC determination, microbroth dilution
[10] = tested on: Burkholderia cepacia (ATCC 25416); test: MIC determination, microbroth dilution; conditions: Burkholderia cepacia
[11] = tested on: Streptococcus pneumoniae (R6); test: MIC determination, microbroth dilution; conditions: read-out: MIC S. pn.
Moraxella catarrhalis = test: MIC determination (Table 6)
[12] = tested on: Haemophilus influenza (ATCC 49247); test: microbe, parasite or virus in culture; conditions: ATCC49247; Haemophilus influenza; 4 μg per disc; range of at least two experiments; read-out: Zone of inhibition H.i.
[13] = tested on: Pseudomonas aeruginosa (PA01); test: MIC determination, microbroth dilution
[14] = tested on: Stenotrophomonas maltophilia (ATCC 13637); test: MIC determination, microbroth dilution
[15] = tested on: Legionella pneumophila (ATCC 33153); test: microbe, parasite or virus in culture; conditions: ATCC33153, 72 h, read-out: Zone of inhibition L.p.
[16] = tested on: acinetobacter baumannii (ATCC 19606); test: MIC determination, microbroth dilution; conditions: ATCC19606
Bacillus anthracis = test: microbe, parasite or virus in culture; conditions: read-out: MIC B.a.
[17] = tested on: Neisseria meningitides (ATCC 13077); test: Disc diffusion assay; conditions: ATCC13077, 4 μg per disc, read-out: Zone of inhibition N.m.
[18] = tested on: Klebsiella pneumoniae (ATCC 33495); test: MIC determination, microbroth dilution; conditions: ATCC33495
E. coli K12 ΔtolC = test: microbe, parasite or virus in culture; conditions: Escherichia coli, read-out: MIC E.c. Δtolc
[19] = tested on: Bacillus subtilis (ATCC 23857); test: MIC determination, microbroth dilution
[20] = ATCC700926, Escherichia coli (ATCC 700926), read-out: MIC E.c.
[21] = Streptococcus pyogenes, ATCC700294, read-out: MIC S. py.
[22] = ATCC25416, read-out: MIC B.c., Burkholderia cepacia (ATCC 25416)
[23] = ATCC25416, read-out: MIC B.c., Burkholderia cepacia, Table 6
[24] = Bacillus subtilis, ATCC23857, read-out: MIC B.s.
[25] = ATCC700294, Streptococcus pyogenes (ATCC 700294), read-out: MIC S. py.
[26] = ATCC13637, Stenotrophomonas maltophilia (ATCC 13637), read-out: MIC S.m.
[27] = ATCC23857, Bacillus subtilis (ATCC 23857), read-out: MIC B.s.

SMILES	zone of inhibition at 4 µg/disc [1]	MIC [2, 20]	MIC [3]	MIC [4]	MIC (Listeria monocytogenes)	MIC [5]	MIC [6]	MIC [7]	MIC ([8]; H37RV, read-out: MIC H37Rv)	MIC [10, 22]	MIC [10, 23]	MIC (Moraxella catarrhalis)	zone of inhibition at 4 µg/disc [12]	MIC [13]	zone of inhibition at 4 µg/disc [15]	MIC [16]	MIC (Bacillus anthracis)	zone of inhibition at 4 µg/disc [17]	MIC [18]	MIC (E. coli K12 ΔtolC)	also measured
CN[C@@H]1[C@H](O)[C@H](NC)[C@H]2O[C@]3(O)[C@H](O[C@@H]2[C@H]1O)O[C@H](C)C[C@@]3(O)CNCCc1ccc(OC)cc1 [compound 53, 3′-(R)-3′-[(4-methoxy)phenethylaminomethyl]dihydrospectinomycin Trihydrochloride]	12 mm	50 µg/mL	> 200 µg/mL	25 to 50 µg/mL	6.3 µg/mL	25 µg/mL	100 µg/mL	200 µg/mL	6.3 µg/mL	> 200 µg/mL	> 200 µg/mL	3.1 µg/mL	11 mm	> 200 µg/mL	30 mm	> 200 µg/mL	25 to 50 µg/mL	10 mm	100 to 200 µg/mL	12.5 µg/mL	MIC ([8]; read-out: MIC TN022): 12.5 µg/mL; MIC ([8]; read-out: MIC TN026): 12.5 µg/mL; MIC [9, 21]: 12.5 to 25 µg/mL; MIC ([11]; Streptococcus pneumoniae): 12.5 µg/mL; MIC ([14]; Stenotrophomonas maltophilia, ATCC13637, read-out: MIC S.m.): 12.5 µg/mL; MIC [19, 24]: 12.5 µg/mL
CN[C@@H]1[C@H](O)[C@H](NC)[C@H]2O[C@]3(O)[C@H](O[C@@H]2[C@H]1O)O[C@H](C)C[C@@]3(O)CNCCc1ccc(Cl)cc1 [compound 54, 3′-(R)-3′-[(4-chloro)phenethylaminomethyl]dihydrospectinomycin Trihydrobromide]	11 mm	50 to 100 µg/mL	> 200 µg/mL	200 µg/mL	25 µg/mL	100 to 200 µg/mL	> 200 µg/mL	> 200 µg/mL	25 µg/mL	> 200 µg/mL	> 200 µg/mL	6.3 µg/mL	9 mm	> 200 µg/mL	15 mm	> 200 µg/mL	200 µg/mL	7 mm	> 200 µg/mL	12.5 to 25 µg/mL	MIC ([8]; read-out: MIC TN022): 25 µg/mL; MIC ([8]; read-out: MIC TN026): 50 µg/mL; MIC [9, 25]: 25 µg/mL; MIC ([11]; Streptococcus pneumoniae (R6)): 25 µg/mL; MIC [14, 26]: ≥ 200 µg/mL; MIC [19, 27]: 25 to 50 µg/mL
CN[C@@H]1[C@H](O)[C@H](NC)[C@H]2O[C@]3(O)[C@H](O[C@@H]2[C@H]1O)O[C@H](C)C[C@@]3(O)CNCCc1ccc(C)c(C)c1 [compound 55, 3′-(R)-3′-[(3,4-dimethyl)phenethylaminomethyl]dihydrospectinomycin Trihydrochloride]	11 mm	100 to 200 µg/mL	> 200 µg/mL	100 µg/mL	25 µg/mL	100 µg/mL	> 200 µg/mL	> 200 µg/mL	25 µg/mL	> 200 µg/mL	> 200 µg/mL	3.1 µg/mL	9 mm	> 200 µg/mL	15 mm	> 200 µg/mL	100 µg/mL	8 mm	> 200 µg/mL	12.5 to 25 µg/mL	MIC ([8]; read-out: MIC TN022): 50 µg/mL; MIC ([8]; read-out: MIC TN026): 50 µg/mL; MIC [9, 21]: 12.5 to 25 µg/mL; MIC ([11]; Streptococcus pneumoniae (R6)): 12.5 µg/mL; MIC [14, 26]: 50 µg/mL; MIC [19, 27]: 50 µg/mL
CN[C@@H]1[C@H](O)[C@H](NC)[C@H]2O[C@]3(O)[C@H](O[C@@H]2[C@H]1O)O[C@H](C)C[C@@]3(O)CNCc1ccccc1Cl [compound 56, 3′-(R)-3′-[(2-chloro)benzylaminomethyl]dihydrospectinomycin Trihydrobromide]	0 mm	> 200 µg/mL	> 200 µg/mL	> 200 µg/mL	> 200 µg/mL	> 200 µg/mL	> 200 µg/mL	> 200 µg/mL	> 200 µg/mL	> 200 µg/mL	> 200 µg/mL	100 µg/mL	0 mm	> 200 µg/mL	0 mm	> 200 µg/mL	> 200 µg/mL	0 mm	> 200 µg/mL	> 200 µg/mL	MIC [9, 25]: 50 µg/mL; MIC ([11]; Streptococcus pneumoniae (R6)): 100 µg/mL; MIC [14, 26]: > 200 µg/mL; MIC [19, 27]: > 200 µg/mL
CN[C@@H]1[C@H](O)[C@H](NC)[C@H]2O[C@]3(O)[C@H](O[C@@H]2[C@H]1O)O[C@H](C)C[C@@]3(O)CNCCc1ccc(OC(F)(F)F)cc1 [compound 57, 3′-(R)-3′-[(4-trifluoromethoxy)phenethylaminomethyl]dihydrospectinomycin Trihydrochloride]	14 mm	–	200 µg/mL	25 µg/mL	6.3 µg/mL	25 µg/mL	50 to 100 µg/mL	200 µg/mL	12.5 µg/mL	≥ 200 µg/mL	≥ 200 µg/mL	0.8 µg/mL	12 mm	> 200 µg/mL	22 mm	≥ 200 µg/mL	25 µg/mL	15 mm	> 200 µg/mL	1.3 to 3.1 µg/mL	MIC ([2]; Escherichia coli, ATCC700926, read-out: MIC E.c.): 25 µg/mL; MIC ([8]; read-out: MIC TN022): 6.3 µg/mL; MIC ([8]; read-out: MIC TN026): 25 µg/mL; MIC [9, 25]: 3.1 to 6.3 µg/mL; MIC ([11]; Streptococcus pneumoniae (R6)): 3.1 µg/mL; MIC [14, 26]: 50 to 100 µg/mL; MIC [19, 24]: 12.5 µg/mL
